Experimental data reported in US20050152906A1, “Specific human antibodies” (priority 2003, published 2005).
Ends that are not written are not given here. * marks the point of attachment. SO3H = O=S(=O)(O)*

Experiments:
[1] = tested on: Y1-scFv binding to platelets; assay: Y1-scFv platelet binding assay, inhibition by synthetic GPIb peptides
Method: Briefly, peptides were synthesized by solid phase methodology using an ABIMED AMS-422 multiple peptide synthesizer, and as required, tyrosine sulfate was incorporated using FMOC-Try sodium salt. Synthetic peptides were purified using a Lichrosorb RP-18 column. For the Y1-scFv platelet binding assay, a mixture of synthetic peptide (2.5, 25 or 200 μM) and Y1-scFv (10 μg) was incubated with […]. Following washing, platelets were incubated with R-phycoerythrin labeled-anti scFv, washed and analyzed by FACS.

[2] = Storage stability; type: physicochemical; conditions: under argon at −20° C.
Method: After reaction with acetic acid, the resulting free base was isolated as its solid acetate salt followed by lyophilization. M-DNR-Ac is stable for at least 12 months under argon at −20° C.
The methanolic solution was evaporated to dryness under reduced pressure at 25° C., resulting in a red oily residue, which was dissolved in dry methanol. To this solution, dry ether was added and the precipitated red solid isolated by centrifugation. […] (6-Maleimidocaproyl)hydrazone of Morphlinyldaunorubicin acetate is stable for at least 4 months under argon at −20° C.

[3] = tested on: primary B-CLL cells; assay: CDC against mononuclear cells from B-CLL patients; type: cell-based, human; conditions: presence and absence of 25% of the patients' plasma
Method: For CDC experiments, mononuclear cells from B-CLL patients were separated on FICOLL®. Cells were incubated with or without Y1-IgG or control antibodies for 24 hours in the presence or absence of the patient's plasma. Apoptotic cells were then stained with Annexin-PI and analyzed by FACS.
Mononuclear cells from B-CLL patients were incubated with Y1-IgG, Rituximab or Campath® in the presence and absence of 25% of the patients' plasma. […] Neither Rituximab nor Y1-IgG induced cytotoxicity via complement fixation.

[4] = tested on: primary B-CLL cells; assay: Y1-IgG-mediated ADCC by PBMC effector cells against primary B-CLL cells; type: cell-based
Method: For ADCC experiments, mononuclear effector and target cells were separated on FICOLL®. Target cells were then labeled with PKH26, which stably incorporates a fluorescent dye within the lipid regions of the cell membranes. Cells were then washed and incubated with effector cells at various Effector:Target (E:T) ratios, in the absence or presence of different concentrations of Y1-IgG or control antibodies for 24 hours. Dead cells were stained by TOPRO®(Molecular Probes, Inc., Eugene, Oreg.): and analyzed by FACS on gated target cells.
To determine if Y1-IgG mediates ADCC in primary B-CLL, B-CLL cells from different patients were co-incubated for 24 hours with PBMC effector cells at different effector/target cell ratios. […] Variation may be attributed to the effector cell samples obtained from different healthy donors, as well as to differences among the B-CLL samples.

[5] = tested on: primary AML cells; assay: Semisolid clonogenic assay, primary AML patient samples; type: cell-based, human
Method: 3.2 Cytotoxicity of Y1-IgGM-DNR Derivative (FIG. 12-14): The specific cytotoxic effect of Y1-drug conjugates was assessed in semisolid (METHOCULT™; StemCell Technologies Inc., Vancouver BC, Canada) clonogenic assays. Cells (CD34+ stem cells from cord blood or primary AML patient samples) were incubated with free or conjugated drugs at concentrations of up to 10^−6M for 1 hour at 37° C. The cells were washed, seeded in METHOCULT™ and grown for 10-12 days, after which colonies were counted. Bovine (b)-IgG-M-DNR was used as a non-specific conjugate control.

[6] = molecular target: PSGL-1 (P-Selectin Glycoprotein Ligand-1) (human) (UniProt Q14242); assay: cell-based or functional assay
[7] = substitution mutant peptides based on DLY^SDYYPE (FIG. 17B), concentration not given

UniProt Q14242, sequence (Q14242 42-412): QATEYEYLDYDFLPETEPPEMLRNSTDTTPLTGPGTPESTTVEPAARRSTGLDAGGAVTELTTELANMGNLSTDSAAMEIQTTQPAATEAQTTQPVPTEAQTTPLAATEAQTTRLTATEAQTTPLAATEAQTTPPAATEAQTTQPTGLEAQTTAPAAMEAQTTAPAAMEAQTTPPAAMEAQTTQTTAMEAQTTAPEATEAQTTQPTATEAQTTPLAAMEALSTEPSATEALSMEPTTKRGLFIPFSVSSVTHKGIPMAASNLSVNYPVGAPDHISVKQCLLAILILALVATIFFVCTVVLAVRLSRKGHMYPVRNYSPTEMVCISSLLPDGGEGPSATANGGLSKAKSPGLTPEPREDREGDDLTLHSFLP

**Q.** Which “inhibition of Y1-scFv binding to platelets” value (from here on “inhibition of Y1-scFv binding”) [1, 7] does the source give for “DLY^SEYYPE (DLY(SO3H)EYYPE) [Asp-277 replaced by Glu]” here?
**A.** substantially incapable of inhibiting

**Q.** For `CC(=O)O.COc1cccc2c1C(=O)c1c(O)c3c(c(O)c1C2=O)C[C@@](O)(C(C)=O)C[C@@H]3O[C@H]1C[C@H](N2CCOCC2)[C@H](O)[C@H](C)O1` [M-DNR-Ac, 3′-Deamino-3′-(4-morpholinyl)daunorubicin acetate], which “stable for” value [2] is on record?
**A.** at least 12 months

**Q.** With “DLY^SDYYAE (DLY(SO3H)DYYAE) [substitution mutant peptide, amino acids 278 to 280]” as the molecule, how does the “inhibition of Y1-scFv binding” value [1, 7] read?
**A.** inhibited Y1-scFv binding to platelets

**Q.** With “DLY^SDYY^SPE (DLY(SO3H)DYY(SO3H)PE) [sulfated at the first and third tyrosines]” as the molecule, how does the “inhibition of Y1-scFv binding” value ([1]; peptide 25 μM) read?
**A.** effectively inhibited

**Q.** Which “cytotoxicity via CDC” value [3] does the source give for “Rituximab: commercially available humanized antibody which binds CD20” here?
**A.** Neither

**Q.** What about the “concentration at which saturation of receptor molecules on the target cells was achieved” value [4] of the same molecule?
**A.** not by the same concentration

**Q.** For “DLY^SNYYPE (DLY(SO3H)NYYPE) [Asp-277 replaced by Asn]”, which “inhibition of Y1-scFv binding” value [1, 7] is on record?
**A.** substantially incapable of inhibiting

**Q.** With `CC(=O)O.COc1cccc2c1C(=O)c1c(O)c3c(c(O)c1C2=O)C[C@@](O)(C(C)=NNC(=O)CCCCCN1C(=O)C=CC1=O)C[C@@H]3O[C@H]1C[C@H](N2CCOCC2)[C@H](O)[C@H](C)O1` [(6-Maleimidocaproyl)hydrazone of Morphlinyldaunorubicin acetate] as the molecule, how does the “stable for” value [2] read?
**A.** at least 4 months

**Q.** For “DAY^SDYYPE (DAY(SO3H)DYYPE) [Leu-275 replaced by Ala]”, which “inhibition of Y1-scFv binding” value [1, 7] is on record?
**A.** inhibited Y1-scFv binding to platelets

**Q.** Which results are given for `COc1cccc2c1C(=O)c1c(O)c3c(c(O)c1C2=O)C[C@@](O)(C(C)=O)C[C@@H]3O[C@H]1C[C@H](N2CCOCC2)[C@H](O)[C@H](C)O1` [M-DNR, 3′-Deamino-3′-(4-morpholinyl)daunorubicin]?
**A.** colony formation relative to control, AML-M4 cells ([5]; 1 μM): did not give rise to colonies; colony formation relative to control, AML-M5 cells ([5]; 1 μM): did not give rise to colonies; viability of primary AML cells relative to the control ([5]; AML sample M7 megakaryocytic leukemia, 0.1 μM): 80%

**Q.** With DLYDYYPE [non-sulfated control peptide] as the molecule, how does the “inhibition of Y1-scFv binding” value ([1]; peptide 200 μM) read?
**A.** no effect

**Q.** With “DLY^SDY^SY^SPE (DLY(SO3H)DY(SO3H)Y(SO3H)PE) [GPIb-based peptide comprising 3 sulfated tyrosines]” as the molecule, how does the “inhibition of Y1-scFv binding” value ([1]; peptide 25 μM) read?
**A.** effectively inhibited

**Q.** With mouse anti-PSGL-1 antibody KPL1 as the molecule, how does the inhibition of ML2 cell rolling on rh-P-Selectin (1 µg/ml) at all shear forces [6] read?
**A.** 100%

**Q.** For “DLY^SDAYPE (DLY(SO3H)DAYPE) [substitution mutant peptide, amino acids 278 to 280]”, which “inhibition of Y1-scFv binding” value [1, 7] is on record?
**A.** inhibited Y1-scFv binding to platelets

**Q.** With “DLY^SDY^SYPE (DLY(SO3H)DY(SO3H)YPE) [sulfated at the first and second tyrosines]” as the molecule, how does the “inhibition of Y1-scFv binding” value ([1]; peptide 25 μM) read?
**A.** effectively inhibited

**Q.** For “DLY^SDYYPA (DLY(SO3H)DYYPA) [substitution mutant peptide, amino acids 278 to 280]”, which “inhibition of Y1-scFv binding” value [1, 7] is on record?
**A.** inhibited Y1-scFv binding to platelets

**Q.** Which “inhibition of Y1-scFv binding” value ([1]; peptide 25 μM) does the source give for “DLY^SDYYPE (DLY(SO3H)DYYPE) [sulfated at the first tyrosine]” here?
**A.** effectively inhibited

**Q.** For “DLYDYY^SPE (DLYDYYPE; not fully specified (residue 6)) [sulfated at the third tyrosine]”, which “inhibition of Y1-scFv binding” value ([1]; peptide 200 μM) is on record?
**A.** no effect

**Q.** With “DLEDYYPE [sulfated Tyr-276 replaced with Glu]” as the molecule, how does the “inhibition of Y1-scFv binding” value [1, 7] read?
**A.** no substantial inhibition

**Q.** For “Campath®: commercially available humanized antibody which binds CD52”, which “cytotoxicity via CDC” value [3] is on record?
**A.** mediated cytotoxicity of primary B-CLL cells via CDC

**Q.** For “DLYDY^SY^SPE (DLYDY(SO3H)Y(SO3H)PE) [sulfated at the second and third tyrosines]”, which “inhibition of Y1-scFv binding” value ([1]; peptide 200 μM) is on record?
**A.** no effect

**Q.** For “DLY^SAYYPE (DLY(SO3H)AYYPE) [Asp-277 replaced by Ala]”, which “inhibition of Y1-scFv binding” value [1, 7] is on record?
**A.** substantially incapable of inhibiting

**Q.** For “DLY^SDFYPE (DLY(SO3H)DFYPE) [substitution mutant peptide, amino acids 278 to 280]”, which “inhibition of Y1-scFv binding” value [1, 7] is on record?
**A.** inhibited Y1-scFv binding to platelets
